{"source": "patent US20220024872A1", "about": "“ISOLATION AND CHARACTERIZATION OF ANTICANCER COMPOUND FROM SESUVIUM PORTULACASTRUM (L.) L” (priority 2019, published 2022)", "key": {"[1]": {"system": "human neuroblastoma cells (IMR-32)", "assay": "MTT cell proliferation assay, IMR-32", "type": "cell-based", "experimental": "(§1) Anticancer activity of crude extracts were evaluated against four cell lines, human triple negative breast cancer cells (MDA-MB-231), estrogen positive breast cancer cells (MCF-7), human neuroblastoma cells (IMR-32) and human colon cancer cells (HCT-116) that were procured from NCCS-Pune using 3-(4,5-Dimethylthiazol-2-Yl)-2,5-Diphenyltetrazolium Bromide (MTT) assay.\n(§2) In vitro cytotoxic activity of all the extracts was determined by MTT assay as described by Manikandan et al. (2017) with slight modification. After trypsinization, viable cells were counted by trypan blue exclusion in a hemocytometer and diluted with the medium.\n(§3) The cells were seeded in 96 well plate at a density of 1-2×10^4 cells per well. The plate was incubated at 37° C. in a 5% CO2 atmosphere. The following day media was removed and the cells were treated with standard, doxorubicin (0.1-4 μg/ml) or plant extract at different concentrations (100-500 μg/ml). The extract was initially dissolved in 1:1 ratio of ethanol-ethyl acetate mixture and further diluted in medium to get the required concentrations. As plant extracts were dissolved in ethyl acetate and as ethyl acetate is not miscible with cell culture media, a mixture of ethanol-ethyl acetate in a ratio of 1:1 is used for all the cell culture experiments. The final mixture used for treating the cells contained not more than 0.5% of the ethanol-ethyl acetate mixture. Negative controls were treated with the same percentage of ethanol-ethyl acetate mixture.\n(§4) The treated plate was incubated at 37° C. in a humidified incubator with 5% CO2 for 24 h. After the incubation period, the media was removed, 100 μl of 0.1 mg/ml MTT reagent was added and incubated at 37° C. in a humidified incubator with 5% CO2 for 1 h till purple MTT formazan crystals were visible under the microscope. The formazan crystals were dissolved by adding 100 μl DMSO and spectrophotometric readings were taken at 540 nm.\n(§5) The cytotoxic activity of standard or plant extract was calculated as the percentage of cell growth inhibition by using the following formula.\n(§6) Where Acontrol indicates the absorbance of control containing 0.5% ethanol-ethyl acetate mixture. Asample is the absorbance of treated cells at different concentrations. IC50 values (the concentration of sample required for inhibition of 50% of cell growth) were obtained from the regression line.\n(§7) The anticancer potential of the anticancer compound against MDA-MB-231, MCF-7, IMR-32 and HCT-116 cells was evaluated at different concentrations (40, 80, 120, 160 and 200 μg/ml) and different incubation times (24 h, 48 h, 72 h) using MTT assay by the method described above."}, "[2]": {"system": "estrogen positive breast cancer cells (MCF-7)", "assay": "MTT cell proliferation assay, MCF-7", "type": "cell-based", "settings": "Homo sapiens", "experimental": "as §1, §2, §3, §4, §5, §6, §7"}, "[3]": {"system": "human triple negative breast cancer cells (MDA-MB-231)", "assay": "MTT cell proliferation assay, MDA-MB-231", "type": "cell-based", "experimental": "as §1, §2, §3, §4, §5, §6\nFurther, the most polar band from all the fractions was combined and termed as fraction 29. All the compounds separated along with crude diethyl ether extract were analyzed for their anticancer potential against MDA-MB-231 cells at a concentration of 300 μg/ml using MTT assay as described above. Cytotoxic activity was expressed as percentage inhibition of cells at 300 μg/ml.\nas §7"}, "IMR-32 cells [4]": {"system": "IMR-32 cells", "assay": "Cell cycle progression, IMR-32", "type": "cell-based, human"}, "[5]": {"system": "human peripheral blood lymphocytes", "assay": "Trypan blue exclusion assay, lymphocyte viability", "type": "cell-based", "experimental": "In order to know the side effects associated with the treatment of anticancer compound, the effect of the anticancer compound on the viability of human peripheral blood lymphocytes was determined using trypan blue exclusion assay. Along with the viability of lymphocytes, the viability of different cancer cells at that particular concentration and incubation time are shown in Table 6."}, "IMR-32 cells [6]": {"system": "IMR-32 cells", "assay": "Gene expression by PCR relative to β-actin, IMR-32", "type": "cell-based, human", "settings": "IMR-32, 87 μg/ml, 72 h", "experimental": "(§8) FIG. 7. Detection of genes by PCR. Lane 1: MDA-MB-231 control cells; lane 2: MDA-MB-231 cells treated with anticancer compound (96 μg/ml) for 72 h; lane 3: IMR-32 control cells; lane 4: IMR-32 cells treated with anticancer compound (87 μg/ml) for 72 h; control cells are treated with 0.2% of ethanol-ethyl acetate mixture at 1:1 ratio.\n(§9) Genetic level changes associated with the treatment of anticancer compound in MDA-MB-231 and IMR-32 cells were studied by isolating the RNA, reverse transcribing the RNA to cDNA, amplifying the genes using specific primers. The resulting bands were analyzed using image J and the expression of each gene was represented as relative gene expression using the β-actin gene as a control."}, "[7]": {"system": "human colon cancer cells (HCT-116)", "assay": "MTT cell proliferation assay, HCT-116", "type": "cell-based", "experimental": "as §1, §2, §3, §4, §5, §6, §7"}, "MDA-MB-231": {"system": "MDA-MB-231", "assay": "Cell cycle progression, MDA-MB-231", "type": "cell-based, human"}, "MDA-MB-231 cells": {"system": "MDA-MB-231 cells", "assay": "Gene expression by PCR relative to β-actin, MDA-MB-231", "type": "cell-based, human", "settings": "MDA-MB-231, 96 μg/ml, 72 h", "experimental": "as §8, §9"}, "lymphocytes": {"system": "lymphocytes", "settings": "1 μg/ml, 24 h; cited from earlier work"}}, "note": "Where “and” joins values, the source holds several entries; their conditions need not be identical. Identical values can stand only once."}
{"smiles": "Cc1cnc(-c2ccc(CCCCCCCC(C)C)cc2)c(C)c1C", "note": "[Compound 16, 3,4,5-trimethyl-2-(4-(8-methylnonyl)phenyl)pyridine]", "values": [{"measurement": "viability at 300 µg/mL", "setting": "[1]; IMR-32, 300 μg/ml, 72 h, read-out: Viability percentage IMR-32", "result": 0, "unit": "%"}, {"measurement": "viability at 350 µg/mL", "setting": "[1]; IMR-32, 350 μg/ml, 48 h, read-out: Viability percentage IMR-32", "result": 0, "unit": "%"}, {"measurement": "viability at 400 µg/mL", "setting": "[1]; IMR-32, 400 μg/ml, 24 h, read-out: Viability percentage IMR-32", "result": 0, "unit": "%"}, {"measurement": "IC50", "setting": "[1]; IMR-32, 24 h", "result": "224 ± 7.21", "unit": "µg/mL"}, {"measurement": "IC50", "setting": "[1]; IMR-32, 48 h", "result": "165.2 ± 0.87", "unit": "µg/mL"}, {"measurement": "IC50", "setting": "[1]; IMR-32, 72 h", "result": 87.8, "unit": "µg/mL"}, {"measurement": "IC50", "setting": "[2]; MCF7, 24 h", "result": 243, "unit": "µg/mL"}, {"measurement": "IC50", "setting": "[2]; MCF7, 48 h", "result": "183 ± 6.29", "unit": "µg/mL"}, {"measurement": "IC50", "setting": "[2]; MCF7, 72 h", "result": "155 ± 5.24", "unit": "µg/mL"}, {"measurement": "viability at 300 µg/mL", "setting": "[2]; MCF7, 300 μg/ml, 72 h, read-out: Viability percentage MCF-7", "result": 0, "unit": "%"}, {"measurement": "viability at 350 µg/mL", "setting": "[2]; MCF7, 350 μg/ml, 48 h, read-out: Viability percentage MCF-7", "result": 0, "unit": "%"}, {"measurement": "viability at 400 µg/mL", "setting": "[2]; MCF7, 400 μg/ml, 24 h, read-out: Viability percentage MCF-7", "result": 0, "unit": "%"}, {"measurement": "viability at 300 µg/mL", "setting": "[3]; MDA-MB-231, 300 μg/ml, 72 h, read-out: Viability percentage MDA-MB-231", "result": 0, "unit": "%"}, {"measurement": "viability at 350 µg/mL", "setting": "[3]; MDA-MB-231, 350 μg/ml, 48 h, read-out: Viability percentage MDA-MB-231", "result": 0, "unit": "%"}, {"measurement": "viability at 400 µg/mL", "setting": "[3]; MDA-MB-231, 400 μg/ml, 24 h, read-out: Viability percentage MDA-MB-231", "result": 0, "unit": "%"}, {"measurement": "IC50", "setting": "[3]; MDA-MB-231, 24 h", "result": "199.2 ± 0.5", "unit": "µg/mL"}, {"measurement": "IC50", "setting": "[3]; MDA-MB-231, 48 h", "result": "99.1 ± 1.6", "unit": "µg/mL"}, {"measurement": "IC50", "setting": "[3]; MDA-MB-231, 72 h", "result": "96.2 ± 1.75", "unit": "µg/mL"}, {"measurement": "inhibition at 300 µg/mL", "setting": "[3]; MDA-MB-231 cells, 300 μg/ml, read-out: Percentage Inhibition", "result": "94.54 ± 0.59", "unit": "%"}, {"measurement": "phase at which cell cycle progression is inhibited", "setting": "IMR-32 cells [4]", "result": "G1 phase"}, {"measurement": "Viability percentage Lymphocytes", "setting": "[5]; 300 μg/ml, 72 h, listed as anticancer compound", "result": "74.94% and 74.94 ± 1.50%"}, {"measurement": "Viability percentage Lymphocytes", "setting": "[5]; 350 μg/ml, 48 h", "result": "82.11 ± 1.42", "unit": "%"}, {"measurement": "Viability percentage Lymphocytes", "setting": "[5]; 400 μg/ml, 24 h, listed as anticancer compound", "result": "91.04% and 90.40 ± 4.02%"}, {"measurement": "Bcl-2 gene expression vs control", "setting": "IMR-32 cells [6]", "result": "no change in the expression levels"}, {"measurement": "IKK-β gene expression vs control", "setting": "IMR-32 cells [6]", "result": "downregulation"}, {"measurement": "Nrf2 gene expression vs control", "setting": "IMR-32 cells [6]", "result": "reduced expression level"}, {"measurement": "caspase-3 gene expression vs control", "setting": "IMR-32 cells [6]", "result": "upregulation"}, {"measurement": "p53 gene expression vs control", "setting": "IMR-32 cells [6]", "result": "reduced"}, {"measurement": "viability at 300 µg/mL", "setting": "[7]; HCT-116, 300 μg/ml, 72 h, read-out: Viability percentage HCT-116", "result": "3.29 ± 3.15", "unit": "%"}, {"measurement": "viability at 350 µg/mL", "setting": "[7]; HCT-116, 350 μg/ml, 48 h, read-out: Viability percentage HCT-116", "result": 0, "unit": "%"}, {"measurement": "viability at 400 µg/mL", "setting": "[7]; HCT-116, 400 μg/ml, 24 h, read-out: Viability percentage HCT-116", "result": 0, "unit": "%"}, {"measurement": "IC50", "setting": "[7]; HCT-116, 24 h", "result": "179 ± 6.12", "unit": "µg/mL"}, {"measurement": "IC50", "setting": "[7]; HCT-116, 48 h", "result": "162 ± 5.02", "unit": "µg/mL"}, {"measurement": "IC50", "setting": "[7]; HCT-116, 72 h", "result": 159, "unit": "µg/mL"}, {"measurement": "phase at which cell cycle progression is inhibited", "setting": "MDA-MB-231", "result": "G2/M phase"}, {"measurement": "Bcl-2 gene expression vs control", "setting": "MDA-MB-231 cells", "result": "reduced expression levels"}, {"measurement": "IKK-β gene expression vs control", "setting": "MDA-MB-231 cells", "result": "almost similar in treated and control cells"}, {"measurement": "Nrf2 gene expression vs control", "setting": "MDA-MB-231 cells", "result": "downregulation"}, {"measurement": "caspase-3 gene expression vs control", "setting": "MDA-MB-231 cells", "result": "upregulation"}, {"measurement": "p53 gene expression vs control", "setting": "MDA-MB-231 cells", "result": "reduced"}]}
{"smiles": "COc1cccc2c1C(=O)c1c(O)c3c(c(O)c1C2=O)C[C@@](O)(C(=O)CO)C[C@@H]3O[C@H]1C[C@H](N)[C@H](O)[C@H](C)O1", "note": "[Doxorubicin, doxorubicin, reference compound]", "values": [{"measurement": "IC50", "setting": "[1]; IMR-32, crude extracts 100-500 μg/ml, doxorubicin 0.1-4 μg/ml, 24 h", "result": 0.5, "unit": "µg/mL"}, {"measurement": "IC50", "setting": "[2]; MCF7, crude extracts 100-500 μg/ml, doxorubicin 0.1-4 μg/ml, 24 h", "result": "0.66 ± 0.04", "unit": "µg/mL"}, {"measurement": "lymphocyte viability", "setting": "lymphocytes", "result": 65, "unit": "%"}, {"measurement": "IC50", "setting": "[3]; MDA-MB-231, crude extracts 100-500 μg/ml, doxorubicin 0.1-4 μg/ml, 24 h", "result": "0.83 ± 0.03", "unit": "µg/mL"}, {"measurement": "IC50", "setting": "[7]; HCT-116, crude extracts 100-500 μg/ml, doxorubicin 0.1-4 μg/ml, 24 h", "result": 0.4, "unit": "µg/mL"}]}
